According to paper PMC4267740, “Unprecedented Therapeutic Potential with a Combination of A2A/NR2B Receptor Antagonists as Observed in the 6-OHDA Lesioned Rat Model of Parkinson's Disease” (PLoS ONE, 2014):
pIC50: −log10 of the molar value. Several values for one entry are separate records, joined by “and”; a condition that tells them apart may be missing. Identical values can stand only once. Entries after “also recorded” stand apart in the source; their conditions may differ. Like-named read-outs stand apart in the source and are kept apart here.

Experiments:
[1] = tested on: unilateral 6-OHDA-lesioned rats; assay: Distance traveled in actometers, monotherapy (without L-Dopa); type: in vivo, rat; conditions: Co-101244 1 mg/kg ip
Procedure: (§1) To protect norepinephrinergic neurons, animals were administered imipramine HCl (Sigma) 15 minutes before surgery. They were subsequently anesthetized with ketamine (Ceva, 75 mg/kg) and xylazine (Bayer, 10 mg/kg) and placed in stereotaxic frame (David Kopf Instrument). 6-OHDA was injected into the right ascending medial forebrain bundle at the following coordinates (in mm) relative to bregma and surface of the dura, AP = −3.5, ML = −1.5, DV = −8.7. Each rat received one injection of 6-OHDA (4 µg/µl) over a period of 5 minutes (0.5 µl/min) for a total of 10 µg per rat. Animals were monitored for 3 weeks to ensure full recovery and habituation to the environment and experimenters.
(§2) On day 21 post surgery, all rats were challenged with a small dose of subcutaneously administered apomorphine (Sigma, 0.05 mg/kg). Rats showing more than 90 contralateral rotations (360°) over a 45-minute recording period were included in the study. […] For each experiment, rats were allocated to the different experimental groups in order to get the same mean level of basal activity measured at the apomorphine challenge amongst the different experimental groups.
(§3) Drug-naïve separate rats were tested individually in clear acrylic chambers (LE8811 IR, Panlab). Locomotion was detected and measured by 16 infrared light-beam sensors located on each side of the enclosure at a height of 3 cm. Sensors were spaced such that the light beams formed a matrix of 15×15 squares over the surface. Activity counts were recorded on a computer and Acti-Track software (Actitrack, Panlab) was used to convert raw data into “distance traveled” and “rearing counts” for analysis as relevant dependent variables.
(§4) Six different combinations of A2A/NR2B antagonists were tested without L-Dopa. For each combination, there were four different procedures: vehicle only; A2A antagonist followed by vehicle; vehicle followed by the NR2B antagonist and A2A antagonist followed by the NR2B antagonist. The drugs, doses and combinations are described in Table 3. After drug administration, rats were placed in actometers (open-field) for monitoring the general level of motor activity (distance traveled and rearing counts).
(§5) Before undertaking the study, each A2A and NR2B antagonist was tested individually. The doses were selected on the basis of preliminary dose-response curves performed separately for each drug and submaximal dose (i.e. response observed is not at its maximal level) of each drug was selected for the combination studies. The two drugs were administered separately via an intraperitoneal (ip) injection with a 2-minute interval between the two drugs. Five minutes after the second injection, animals were placed in the testing cage for behavioural recording. Due to formulation and exposure issues, Tozadenant and Radiprodil had to be administered orally and therefore recording was started 60 minutes post dosing at this corresponds to maximum plasma concentrations. Eight drug-naïve animals were used for each of the four procedures; 32 in total for each combination. All behavioral experiments were conducted between 8.00 AM and 2.00 PM at the latest. Preliminary pharmacokinetic assays investigated the plasma and brain disposition of selected drugs administered alone or in combination (ie. Tozadenant/Radiprodil, and Sch-58261/Co-101244; 3 animals per group). Tozadenant and Radiprodil were measured in samples obtained 60 minutes after single oral administration at 30 mg/kg. Sch-58261 and Co-101244 were measured in samples collected 90 min after single intraperitoneal administration at 3 mg/kg.
(§6) The effects of A2A and NR2B antagonists on the level of motor activity (i.e. distance traveled and rearing counts) were assessed with three-way mixed ANOVA, combining the A2A receptor antagonist (2 levels, vehicle and the A2A drug) and the NR2B antagonist (2 levels, vehicle and the NR2B drug) as between-group factors with the time as within-subjects factor (6 or 9 levels). […]

[2] = tested on: unilateral 6-OHDA-lesioned rats; assay: Rearing counts in actometers, monotherapy (without L-Dopa); type: in vivo, rat; conditions: Co-101244 1 mg/kg ip
Procedure: as §1, §2, §3, §4, §5, §6

[3] = tested on: unilateral 6-OHDA-lesioned rats; assay: L-Dopa-induced contralateral rotations in rotometers, add-on therapy; type: in vivo, rat; conditions: add-on to L-Dopa 25 mg/kg ip, Sch-58261 0.3 mg/kg ip, Co-101244 1 mg/kg ip
Procedure: as §1, §2
The rats tested one week earlier for general activity (actometers) were once again placed in clear acrylic individual chambers (50×45 cm) with the same treatment (drug and dose) than that previously received plus L-Dopa. Eight chambers were placed on a level, clear glass bottom, held by a robust frame, and were subdivided into four individual test cages of 25×22 cm. A removable acrylic plate served as a lid.
Rotational behaviour was recorded using a home-made computerized system. Rats were fixed in a harness and linked to mechanical sensors connected directly to a computer. Each 360° clock-wise or counter clock-wise turn was automatically recorded for up to 120 minutes at the maximum. Throughout the experiments, rats were allocated to individual test cages.
Four different combinations were administered as add-on treatment to a low active dose of L-Dopa (25 mg/kg, ip) without any dopa decarboxylase inhibitor to avoid any additional pharmacokinetic interaction. The doses of the compounds were selected on the basis of preliminary dose-response curves performed separately for each drug. To avoid ceiling effect with L-Dopa, only submaximal doses of each drug were selected for testing (as it was done previously for monotherapy). Eight L-Dopa naïve animals were tested for each of the four pharmacological condition: vehicle and L-Dopa (25 mg/kg); A2A antagonist followed by vehicle and L-Dopa; vehicle followed by NR2B antagonist and L-Dopa; A2A antagonist followed by NR2B and L-Dopa. Due to the dominance of the L-Dopa-effect on the lesioned striatum, the unilateral 6-OHDA-lesioned rats rotated after the drugs administration and behavioral activity was recorded in rotometers (i.e. level of contralateral rotations).
All drugs were administered i.p. 25 minutes before behavioural recording, except for the Tozadenant and Radiprodil combination which was administered orally 60 minutes before behavioural recording. As Radiprodil was administered orally, L-Dopa was given 45 minutes after the Radiprodil injection whereas for the other combinations L-Dopa was given 15 minutes after the NR2B drug. The drugs, the doses and the combinations given in co-administration to L-Dopa are described in Table 4 .
The impact of treatment with A2A or NR2B receptor antagonists, given alone or in combination, on the effect of L-Dopa on contralateral rotations was also analysed with a three-way mixed ANOVA. The ANOVA included the A2A and the NR2B receptor antagonists (both, 2 levels, vehicle and the drug) as between-group factors combined with time (12 levels) as within-subjects factor. […] The ability of the combination to increase and prolong the activity of L-Dopa was also explored. Consequently, drug effects were analyzed for every 10-min time interval. […]

[4] = Plasma and brain exposure in satellite lesioned rats; type: in vivo, rat; conditions: 90 min after dosing, mean ± SD
Procedure: Satellite lesioned rats (400–450 g) were anesthetized with isoflurane and sacrificed by exsanguination. Blood samples were collected in EDTA centrifuged 10 min at 3000 rpm at 4°C to obtain plasma and stored at −20°C prior the analysis. Brains were perfused by saline collected and immediately stored at −20°C prior the analysis. Brain samples were added to 4 volumes of water before being homogenized. A structural analog compound was added as internal standard to the samples and proteins were crashed using 8 volumes of acetonitrile. Compounds were analyzed on an API5000 mass spectrometer (ABSciex, Framingham, MA, USA.) equipped with a turbo ion spray source and interfaced with an Agilent 1290 Infinity LC system (Agilent Technologies, Waldbroon, Germany). The mass spectrometer was operated in the positive ionization mode with Multiple Reactions Monitoring used to quantify the various analytes (407 to 292 for Tozadenant; 398 to 109 for Radiprodil, 346 to 105 for Sch-58261 and 342 to 100 for Co-101244). A Waters HSS T3 column (2.1×30 mm, 1.8 µm) was used. The mobile phase consisted of 100% water with 0.1% formic acid (phase A) and 100% acetonitrile with 0.1% formic acid (phase B). The flow rate was 1 mL/min. A linear gradient was performed from 0 to 1 min (95 to 30% phase A), a jump to 90% B in 0.01 min, a hold period of 1.29 min at 90% phase B followed by equilibration at the initial condition was applied before the following injection.
as §5

[5] = tested on: NR2B; conditions: In vitro Binding; cited from earlier work
[6] = tested on: NR2B; set-up: method as in PMID 10454475, PMID 10425109; conditions: TEVC recording; cited from earlier work

Cc1ccc(CC2(O)CCN(CCOc3ccc(O)cc3)CC2)cc1 [Co-101244]
Distance traveled, drugs alone vs vehicle, p (Newman-Keuls) ([1]; Istradefylline 0.3 mg/kg ip): not all drugs when administered alone improved distance traveled; also recorded: Not significant
Distance traveled, drugs main effect, p (three-way mixed ANOVA) ([1]; Istradefylline 0.3 mg/kg ip): p<0.05
Distance traveled, drugs × time effect, p (three-way mixed ANOVA) ([1]; Istradefylline 0.3 mg/kg ip): p<0.001
Distance traveled, drugs main effect, p (three-way mixed ANOVA) ([1]; Sch-58261 1 mg/kg ip): p<0.001
Distance traveled, drugs × time effect, p (three-way mixed ANOVA) ([1]; Sch-58261 1 mg/kg ip): p<0.001
Rearing counts, drugs alone vs vehicle, p (Newman-Keuls) ([2]; Istradefylline 0.3 mg/kg ip): Co-101244, not significant
Rearing counts, drugs main effect, p (three-way mixed ANOVA) ([2]; Istradefylline 0.3 mg/kg ip): Not significant
Rearing counts, drugs × time effect, p (three-way mixed ANOVA) ([2]; Istradefylline 0.3 mg/kg ip): p<0.01
Rearing counts, drugs main effect, p (three-way mixed ANOVA) ([2]; Sch-58261 1 mg/kg ip): p<0.001
Rearing counts, drugs × time effect, p (three-way mixed ANOVA) ([2]; Sch-58261 1 mg/kg ip): p<0.001
Contralateral rotations, drugs main effect, p (three-way mixed ANOVA) [3]: Not significant
Contralateral rotations, drugs × time effect, p (three-way mixed ANOVA) [3]: p<0.001
Plasma concentration ([4]; administered alone, ip 3 mg/kg, 3 animals (Co-101244 n = 2)): 54.7 (n = 2) ng/mL
Plasma concentration ([4]; administered in combination Sch-58261+Co-101244, both ip 3 mg/kg, 3 animals): 55.4 ± 8.32 ng/mL
pIC50 [5]: 8.40
pIC50 [6]: 7.59 and 7.37
